# According to US12371454B2, “Cyclic peptide compound having Kras inhibitory action” (priority 2019, dated 2025):
# Starred links: 1 amine or outer side, 2 acyl side, 3 side chain; linkers in the order of their positions; H or OH if unused. Positions of bridges follow the written chain, without caps; N, C: chain ends. Non-standard residues stand in square brackets, D forms with d. Residues, ends and D or L forms follow the SMILES beside them. *: point of attachment. NMePhe(4-CF3) = CN[C@@H](Cc1ccc(C(F)(F)F)cc1)C(=O)O; NMePhe(4-Cl) = CN[C@@H](Cc1ccc(Cl)cc1)C(=O)O; NMedβ3hAla = C[C@H](CC(=O)[*:2])N(C)[*:1]; Leu(4,5-dehydro) = C=C(C)C[C@H](N)C(=O)O; NMeAla(cPent) = CN[C@@H](CC1CCCC1)C(=O)O; Phe(3-Br) = N[C@@H](Cc1cccc(Br)c1)C(=O)O; Phe(3-OMe) = COc1cccc(C[C@H](N)C(=O)O)c1; Phe(3-I) = N[C@@H](Cc1cccc(I)c1)C(=O)O; X10 = CC(C)=CC[C@H](N[*:1])C(=O)[*:2]; NMeY = CN[C@@H](Cc1ccc(O)cc1)C(=O)O; NMeCha = CN[C@@H](CC1CCCCC1)C(=O)O; NMeAoc(2) = CCCCCC[C@H](NC)C(=O)O; NMeCba = CN[C@@H](CC1CCC1)C(=O)O; hPhe = N[C@@H](CCc1ccccc1)C(=O)O; NMeD = CN[C@@H](CC(=O)O)C(=O)O; NMeL = CN[C@@H](CC(C)C)C(=O)O; Cba = N[C@@H](CC1CCC1)C(=O)O; NMeA = CN[C@@H](C)C(=O)O; NMeAib = CNC(C)(C)C(=O)O; Nle = CCCC[C@H](N)C(=O)O; Piperidide = C1CCN(*)CC1; Pra = C#CC[C@H](N)C(=O)O; Pyrrolidide = C1CCN(*)C1; Aze = O=C(O)[C@@H]1CCN1; Nva = CCC[C@H](N)C(=O)O; Sar = CNCC(=O)O
# Biological target: T1, Kras and SOS1 (biotin-tagged human Kras loaded with GDP, His-tagged human SOS1) (Homo sapiens, UniProt P01116, G12D)
# T1 construct: made in house; host or cells: E. coli (stated for Kras only)
# T1 sequence (P01116 1-188 isoform P01116-2 G12D): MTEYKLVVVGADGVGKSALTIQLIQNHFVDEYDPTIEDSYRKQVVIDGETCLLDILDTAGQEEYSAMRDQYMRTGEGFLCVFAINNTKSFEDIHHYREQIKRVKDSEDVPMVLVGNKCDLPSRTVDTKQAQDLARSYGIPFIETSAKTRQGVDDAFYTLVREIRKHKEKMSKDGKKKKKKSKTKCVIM
# Assay: Protein-protein interaction inhibition between Kras and SOS1 (KrasGl2D-SOS PPI) using AlphaScreen
# Assay type: binding
# Conditions: AlphaScreen; biotin-tagged human Kras loaded with GDP, His-tagged human SOS1; read-out: KRAS G12D-SOS PPI IC50
# Outline: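 Kras was produced in E. coli, purified, then loaded with GDP. It was paired via streptavidin acceptor beads with His-SOS1 held on nickel donor beads, and proximity signal at 520-620 nm was read after 680 nm illumination.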
row,Compound,IC50 [nM]
1,CCCC[C@@H]1NC(=O)[C@H](Cc2cccc(I)c2)NC(=O)CN(C)C(=O)[C@H](Cc2ccc(Cl)cc2)N(C)C(=O)CN(C)C(=O)CN(C)C(=O)[C@H]([C@@H](C)CC)NC(=O)[C@H](CC(C)C)N(C)C(=O)C[C@@H](C(=O)N2CCCC2)N(C)C(=O)[C@H](Cc2ccccc2)NC(=O)C(C)(C)N(C)C1=O [Compound 1409] ([NMeL]I[Sar][Sar][NMePhe(4-Cl)][Sar][Phe(3-I)][Nle][NMeAib]F[NMeD]-Pyrrolidide; lactam N-11),170
2,CCCC[C@@H]1NC(=O)[C@H](Cc2cccc(I)c2)NC(=O)CN(C)C(=O)[C@H](Cc2ccc(Cl)cc2)N(C)C(=O)CN(C)C(=O)CN(C)C(=O)[C@H]([C@@H](C)CC)NC(=O)[C@H](CC(C)C)N(C)C(=O)C[C@@H](C(=O)N2CCCC2)N(C)C(=O)[C@H](CCC)NC(=O)C(C)(C)N(C)C1=O [Compound 1410] ([NMeL]I[Sar][Sar][NMePhe(4-Cl)][Sar][Phe(3-I)][Nle][NMeAib][Nva][NMeD]-Pyrrolidide; lactam N-11),270
3,CCCC[C@@H]1NC(=O)[C@H](Cc2cccc(OC)c2)NC(=O)CN(C)C(=O)[C@H](Cc2ccc(Cl)cc2)N(C)C(=O)CN(C)C(=O)CN(C)C(=O)[C@H]([C@@H](C)CC)NC(=O)[C@H](CC(C)C)N(C)C(=O)C[C@@H](C(=O)N2CCCC2)N(C)C(=O)[C@H](CC(C)C)NC(=O)C(C)(C)N(C)C1=O [Compound 1412] ([NMeL]I[Sar][Sar][NMePhe(4-Cl)][Sar][Phe(3-OMe)][Nle][NMeAib]L[NMeD]-Pyrrolidide; lactam N-11),310
4,CCCC[C@@H]1NC(=O)[C@H](Cc2cccc(I)c2)NC(=O)CN(C)C(=O)[C@H](CC2CCC2)N(C)C(=O)[C@@H]2CCN2C(=O)[C@H](C)N(C)C(=O)[C@H]([C@@H](C)CC)NC(=O)[C@H](CC(C)C)N(C)C(=O)C[C@@H](C(=O)N2CCCCC2)N(C)C(=O)[C@H](CC(C)C)NC(=O)C(C)(C)N(C)C1=O [Compound 1413] ([NMeL]I[NMeA][Aze][NMeCba][Sar][Phe(3-I)][Nle][NMeAib]L[NMeD]-Piperidide; lactam N-11),190
5,"C=C(C)C[C@@H]1NC(=O)[C@H](Cc2cccc(I)c2)NC(=O)CN(C)C(=O)[C@H](Cc2ccc(Cl)cc2)N(C)C(=O)[C@@H]2CCN2C(=O)CN(C)C(=O)[C@H]([C@@H](C)CC)NC(=O)[C@H](CC(C)C)N(C)C(=O)C[C@@H](C(=O)N2CCCCC2)N(C)C(=O)[C@H](CC(C)C)NC(=O)C(C)(C)N(C)C1=O [Compound 1414] ([NMeL]I[Sar][Aze][NMePhe(4-Cl)][Sar][Phe(3-I)][Leu(4,5-dehydro)][NMeAib]L[NMeD]-Piperidide; lactam N-11)",38
6,CCCC[C@@H]1NC(=O)[C@H](Cc2cccc(Br)c2)NC(=O)CN(C)C(=O)[C@H](Cc2ccc(Cl)cc2)N(C)C(=O)[C@@H]2CCN2C(=O)[C@H](C)N(C)C(=O)[C@H]([C@@H](C)CC)NC(=O)[C@H](CC(C)C)N(C)C(=O)C[C@@H](C(=O)N2CCCCC2)N(C)C(=O)[C@H](CC(C)C)NC(=O)C(C)(C)N(C)C1=O [Compound 1415] ([NMeL]I[NMeA][Aze][NMePhe(4-Cl)][Sar][Phe(3-Br)][Nle][NMeAib]L[NMeD]-Piperidide; lactam N-11),34
7,CCCC[C@@H]1NC(=O)[C@H](Cc2cccc(I)c2)NC(=O)CN(C)C(=O)[C@H](CC2CCCCC2)N(C)C(=O)CN(C)C(=O)CN(C)C(=O)[C@H]([C@@H](C)CC)NC(=O)[C@H](CC(C)C)N(C)C(=O)C[C@@H](C(=O)N2CCCCC2)N(C)C(=O)[C@H](CC(C)C)NC(=O)C(C)(C)N(C)C1=O [Compound 1416] ([NMeL]I[Sar][Sar][NMeCha][Sar][Phe(3-I)][Nle][NMeAib]L[NMeD]-Piperidide; lactam N-11),97
8,CCCCCC[C@H]1C(=O)N[C@@H]([C@@H](C)CC)C(=O)N(C)CC(=O)N2CC[C@H]2C(=O)N(C)[C@@H](Cc2ccc(OC)cc2)C(=O)N(C)CC(=O)N[C@@H](Cc2cccc(I)c2)C(=O)N[C@@H](CCCC)C(=O)N(C)C(C)(C)C(=O)N[C@@H](CC(C)C)C(=O)N(C)[C@H](C(=O)N2CCCCC2)CC(=O)N1C [Compound 1417] ([NMeAoc(2)]I[Sar][Aze][NMeY](Me)[Sar][Phe(3-I)][Nle][NMeAib]L[NMeD]-Piperidide; lactam N-11),29
9,CC[C@H](C)[C@@H]1NC(=O)[C@H](CC(C)C)N(C)C(=O)C[C@@H](C(=O)N2CCCCC2)N(C)C(=O)[C@H](CC(C)C)NC(=O)C(C)(C)N(C)C(=O)[C@H](CC=C(C)C)NC(=O)[C@H](Cc2cccc(I)c2)NC(=O)CN(C)C(=O)[C@H](Cc2ccc(Cl)cc2)N(C)C(=O)[C@@H]2CCN2C(=O)[C@H](C)N(C)C1=O [Compound 1419] ([NMeL]I[NMeA][Aze][NMePhe(4-Cl)][Sar][Phe(3-I)][X10][NMeAib]L[NMeD]-Piperidide; lactam N-11),46
10,CCCC[C@@H]1NC(=O)[C@H](Cc2cccc(I)c2)NC(=O)CN(C)C(=O)[C@H](CC2CCCCC2)N(C)C(=O)[C@@H]2CCN2C(=O)CN(C)C(=O)[C@H]([C@@H](C)CC)NC(=O)[C@H](CC(C)C)N(C)C(=O)C[C@@H](C(=O)N2CCCCC2)N(C)C(=O)[C@H](CC(C)C)NC(=O)C(C)(C)N(C)C1=O [Compound 1420] ([NMeL]I[Sar][Aze][NMeCha][Sar][Phe(3-I)][Nle][NMeAib]L[NMeD]-Piperidide; lactam N-11),89
11,"C=C(C)C[C@@H]1NC(=O)[C@H](Cc2cccc(I)c2)NC(=O)CN(C)C(=O)[C@H](Cc2ccc(Cl)cc2)N(C)C(=O)CN(C)C(=O)CN(C)C(=O)[C@H]([C@@H](C)CC)NC(=O)[C@H](CC(C)C)N(C)C(=O)C[C@@H](C(=O)N2CCCCC2)N(C)C(=O)[C@H](CC(C)C)NC(=O)C(C)(C)N(C)C1=O [Compound 1421] ([NMeL]I[Sar][Sar][NMePhe(4-Cl)][Sar][Phe(3-I)][Leu(4,5-dehydro)][NMeAib]L[NMeD]-Piperidide; lactam N-11)",32
12,CCCC[C@@H]1NC(=O)[C@H](Cc2cccc(I)c2)NC(=O)CN(C)C(=O)[C@H](Cc2ccc(Cl)cc2)N(C)C(=O)CN(C)C(=O)CN(C)C(=O)[C@H]([C@@H](C)CC)NC(=O)[C@H](CC(C)C)N(C)C(=O)C[C@@H](C(=O)N2CCCCC2)N(C)C(=O)[C@H](CC2CCC2)NC(=O)C(C)(C)N(C)C1=O [Compound 1422] ([NMeL]I[Sar][Sar][NMePhe(4-Cl)][Sar][Phe(3-I)][Nle][NMeAib][Cba][NMeD]-Piperidide; lactam N-11),16
13,CCCC[C@@H]1NC(=O)[C@H](Cc2cccc(I)c2)NC(=O)CN(C)C(=O)[C@H](CC2CCCC2)N(C)C(=O)CN(C)C(=O)CN(C)C(=O)[C@H]([C@@H](C)CC)NC(=O)[C@H](CC(C)C)N(C)C(=O)C[C@@H](C(=O)N2CCCCC2)N(C)C(=O)[C@H](CC(C)C)NC(=O)C(C)(C)N(C)C1=O [Compound 1423] ([NMeL]I[Sar][Sar][NMeAla(cPent)][Sar][Phe(3-I)][Nle][NMeAib]L[NMeD]-Piperidide; lactam N-11),190
14,C#CC[C@@H]1NC(=O)[C@H](Cc2cccc(I)c2)NC(=O)CN(C)C(=O)[C@H](Cc2ccc(C(F)(F)F)cc2)N(C)C(=O)[C@@H]2CCN2C(=O)CN(C)C(=O)[C@H]([C@@H](C)CC)NC(=O)[C@H](CC(C)C)N(C)C(=O)C[C@@H](C(=O)N2CCCCC2)N(C)C(=O)[C@H](CC(C)C)NC(=O)C(C)(C)N(C)C1=O [Compound 1425] ([NMeL]I[Sar][Aze][NMePhe(4-CF3)][Sar][Phe(3-I)][Pra][NMeAib]L[NMeD]-Piperidide; lactam N-11),19
15,C#CC[C@@H]1NC(=O)[C@H](Cc2cccc(I)c2)NC(=O)CN(C)C(=O)[C@H](Cc2ccc(Cl)cc2)N(C)C(=O)CN(C)C(=O)CN(C)C(=O)[C@H]([C@@H](C)CC)NC(=O)[C@H](CC(C)C)N(C)C(=O)C[C@@H](C(=O)N2CCCCC2)N(C)C(=O)[C@H](CC(C)C)NC(=O)C(C)(C)N(C)C1=O [Compound 1426] ([NMeL]I[Sar][Sar][NMePhe(4-Cl)][Sar][Phe(3-I)][Pra][NMeAib]L[NMeD]-Piperidide; lactam N-11),48
16,C#CC[C@@H]1NC(=O)[C@H](Cc2cccc(I)c2)NC(=O)CN(C)C(=O)[C@H](Cc2ccc(C(F)(F)F)cc2)N(C)C(=O)[C@@H]2CCN2C(=O)CN(C)C(=O)[C@H]([C@@H](C)CC)NC(=O)[C@H](CC(C)C)N(C)C(=O)C[C@@H](C)N(C)C(=O)[C@H](CC(C)C)NC(=O)C(C)(C)N(C)C1=O [Compound 1427] (cyclo([Aze][NMePhe(4-CF3)][Sar][Phe(3-I)][Pra][NMeAib]L[NMedβ3hAla][NMeL]I[Sar])),250
17,C#CC[C@@H]1NC(=O)[C@H](Cc2cccc(I)c2)NC(=O)CN(C)C(=O)[C@H](Cc2ccc(Cl)cc2)N(C)C(=O)[C@@H]2CCN2C(=O)[C@H](C)N(C)C(=O)[C@H]([C@@H](C)CC)NC(=O)[C@H](CC(C)C)N(C)C(=O)C[C@@H](C(=O)N2CCCCC2)N(C)C(=O)[C@H](CC(C)C)NC(=O)C(C)(C)N(C)C1=O [Compound 1428] ([NMeL]I[NMeA][Aze][NMePhe(4-Cl)][Sar][Phe(3-I)][Pra][NMeAib]L[NMeD]-Piperidide; lactam N-11),42
18,"C=C(C)C[C@@H]1NC(=O)[C@H](Cc2cccc(I)c2)NC(=O)CN(C)C(=O)[C@H](Cc2ccc(Cl)cc2)N(C)C(=O)[C@@H]2CCN2C(=O)[C@H](C)N(C)C(=O)[C@H]([C@@H](C)CC)NC(=O)[C@H](CC(C)C)N(C)C(=O)C[C@@H](C(=O)N2CCCCC2)N(C)C(=O)[C@H](CC(C)C)NC(=O)C(C)(C)N(C)C1=O [Compound 1429] ([NMeL]I[NMeA][Aze][NMePhe(4-Cl)][Sar][Phe(3-I)][Leu(4,5-dehydro)][NMeAib]L[NMeD]-Piperidide; lactam N-11)",44
19,CCCC[C@@H]1NC(=O)[C@H](Cc2cccc(I)c2)NC(=O)CN(C)C(=O)[C@H](Cc2ccc(Cl)cc2)N(C)C(=O)CN(C)C(=O)CN(C)C(=O)[C@H]([C@@H](C)CC)NC(=O)[C@H](CC(C)C)N(C)C(=O)C[C@@H](C(=O)N2CCCC2)N(C)C(=O)[C@H](CCc2ccccc2)NC(=O)C(C)(C)N(C)C1=O [Compound 1430] ([NMeL]I[Sar][Sar][NMePhe(4-Cl)][Sar][Phe(3-I)][Nle][NMeAib][hPhe][NMeD]-Pyrrolidide; lactam N-11),400
